Experimental data as given in ChEMBL document CHEMBL1275548, “Interspecies recombination occurs frequently in quinolone resistance-determining regions of clinical isolates of Streptococcus pyogenes” (2008).

System: Streptococcus pyogenes
Test: Antibacterial activity against Streptococcus pyogenes clinical isolate by agar dilution method

Compound: O=C(O)c1cn(C2CC2)c2cc(N3CCNCC3)c(F)cc2c1=O [CIPROFLOXACIN]
- MIC: ≥ 2 µg/mL
